In EP3772943B1, “FORMULATION OF INSECTICIDAL MIXTURES WITH PROPYLENE CARBONATE” (Bayer Aktiengesellschaft, priority 2018, dated 2019):

System: enzymatisch isolierte Kutikeln von Apfelbaumblättern
Experiment: Cuticle penetration test in diffusion cells with HPLC read-out (Beispiel V)
Assay type: in vitro ADME, Apfelbäumen
Conditions: active substances without additives and in presence of propylene carbonate (Tabelle V, Eintrag 1,2)
Excerpt: In diesem Test wird die Penetration von Wirkstoffen durch enzymatisch isolierte Kutikeln von Apfelbaumblättern gemessen.
Verwendet werden Blätter, die in voll entwickeltem Zustand von Apfelbäumen abgeschnitten werden und nach der Methode beschrieben bei Schönherr und Riederer isoliert (Schönherr, J., Riederer, M. (1986)). Es werden nur die von Spaltöffnungen und Haaren freien Kutikeln der Blattoberseiten weiter verwendet. Die so gewonnenen Kutikularmembranen werden für Membran-Transport-Untersuchungen in Diffusionszellen (=Transportkammern) aus Edelstahl eingelegt. Dazu werden die Kutikeln mit einer Pinzette mittig auf die mit Silikonfett bestrichenen Ränder der Diffusionszellen plaziert und mit einem ebenfalls gefetteten Ring verschlossen. Die Anordnung ist so gewählt, dass die morphologische Außenseite der Kutikeln nach außen, also zur Luft, gerichtet ist, während die ursprüngliche Innenseite dem Inneren der Diffusionszelle zugewandt ist. Die Diffusionszellen sind mit Wasser bzw. mit einem Gemisch aus Wasser und Lösungsmittel gefüllt und auf des physiologisch relevante pH von 5.5 gepuffert. Das Medium der Diffusionszellen soll das Apoplast, also das natürliche Aufnahmemdium im inneren des Blattes nachstellen. […]

In the case of `O=C1C=C(N(Cc2ccc(Cl)nc2)CC(F)F)CO1` [Flupyradifurone], the Kutikelpenetration is reported as “keine oder kaum Kutikelpenetration”.
